Results from patent US20220119777A1, “CHEMILUMINESCENCE PHOTODYNAMIC VIRUS INACTIVATION OF RED BLOOD CELLS” (priority 2020, published 2022).

System: bovine viral diarrhea virus (BVDV)
Test: Hypericin-Luciferase inactivation of BVDV spiked into human red blood cell concentrate, TCID50 titration (CPE)
Assay type: cell-based
Conditions: for Unwashed Titer / Unwashed VRF / Washed Titer / Combined VRF / Washed VRF: no luciferase system; for Unwashed Titer: RT 2 h dark; for Unwashed VRF / Washed VRF: vs RBC control; for Combined VRF: washed sample vs unwashed RBC control
Description: Ten different combinations of Dulbecco's modified eagle medium without calcium and magnesium (DMEM (—Ca++, —Mg++)), RBCC, virus, hypericin, luciferin, ATP and luciferase were prepared to all contain equivalent titers of BVDV calculated to be 6.48 log 10TCID50/mL based on the titer of the original virus stock. The concentrations of hypericin tested were 0, 40 and 200 μg/mL. Luciferase was tested at 0, 0.8 and 4.0 μM. Luciferin and ATP were present at 80 and 800 μM respectively when luciferase was present and absent in the absence of luciferase.
The components were mixed and incubated at room temperature (RT) for 2 hours in the dark followed by titration of unwashed and washed samples as previously described. Washing rows of wells with dilutions 1 and 2 was performed 3 days post-infection. Final cytopathic effects (CPEs) were read 10 days post-infection.
(§1) Eleven different combinations of DMEM (—Ca++, —Mg++), RBCC, virus, hypericin, luciferin, adenosine triphosphate (ATP) and luciferase were prepared to all contain equivalent titers of BVDV calculated to be 6.48 log 10TCID50/mL (logs) based on the titer of the original virus stock. The concentrations of hypericin tested were 10, 20 and 40 μg/mL. Luciferase was tested at 0.16, 0.32 and 0.8 μM. Luciferin and ATP were present at 80 and 800 μM, respectively.
The components were mixed and incubated at RT for 2 hours in the dark followed by titration of unwashed and washed samples as previously described. Washing of rows of wells with dilutions 1 and 2 was performed […] post-infection. Final CPE were read 10 days post-infection.
as §1, with “Ten” for “Eleven”, “log10 TCID50/mL” for “log 10TCID50/mL”, “40, 80” for “10, 20”, “120” for “40”
The compounds were mixed and incubated at RT for 2 hours in the dark followed by titration of unwashed and washed samples as previously described. Washing rows of wells with dilutions 1 and 2 was performed 2 days post-infection. Final CPEs were read 10 days post-infection.

[1] = Ex 1 HH-LN: hypericin 200 μg/mL
[2] = Ex 1 HH-LN: hypericin 200 μg/mL, washed
[3] = Ex 1 HL-LN: hypericin 40 μg/mL, washed

SMILES: Cc1cc(O)c2c(=O)c3c(O)cc(O)c4c5c(O)cc(O)c6c(=O)c7c(O)cc(C)c8c1c2c(c34)c(c78)c65 [Hypericin, hypericin]
- Unwashed Titer [1]: 3.10 log10TCID50/mL
- Unwashed VRF [1]: 3.25 log TCID50
- Washed Titer [2]: 2.48 log10TCID50/mL
- Combined VRF [1]: 3.87 log TCID50
- Washed VRF [2]: 1.50 log TCID50
- Unwashed Titer (Ex 1 HL-LN: hypericin 40 μg/mL): 3.48 log10TCID50/mL
- Unwashed VRF (Ex 1 HL-LN: hypericin 40 μg/mL): 2.87 log TCID50
- Washed Titer [3]: <2.34 log10TCID50/mL
- Combined VRF (Ex 1 HL-LN: hypericin 40 μg/mL): >4.01 log TCID50
- Washed VRF [3]: >1.64 log TCID50
- VRFs, unwashed samples (Example 1, all hypericin treated unwashed samples, low (40 μg/mL) and high (200 μg/mL) doses): ~3 logs
- combined VRFs (Example 3, hypericin 40 μg/mL, all levels of luciferase, washed): > 3.51 logs
- VRF, washed samples (Example 3, hypericin dose of 40 μg/mL, all levels of luciferase, washed, complete inactivation/elimination): > 1.14 logs
- optimal dose of hypericin for BVDV (summary of Examples 1-3, with different doses of luciferase): 40 µg/mL
